{"source": "patent US12297482B2", "about": "“Rapid cell culture test device designed such that fluid films with uniform thickness are formed” (priority 2020, dated 2025)", "key": {"P. aeruginosa ATCC 27853": {"system": "P. aeruginosa ATCC 27853", "assay": "Antibiotic susceptibility testing using the cell culture test device (DRAST), time-lapse colony observation", "details": "reference strain, observed until 6 h"}, "Enterobacter cloacae [1]": {"system": "Enterobacter cloacae", "assay": "Susceptibility testing of blood-sample strain by broth microdilution (BMD)", "assay_type": "cell-based", "parameters": "key: susceptible (S); intermediate resistance (I); resistance (R)", "details": "BMD testing method, strain from blood sample", "procedure": "The tests were conducted on various drugs that are currently used in testing organizations. […] Accordingly, these test results are all classified as minor errors of the first step judgement."}, "Enterobacter cloacae [2]": {"system": "Enterobacter cloacae", "assay": "Susceptibility testing of blood-sample strain using the cell culture test device (DRAST)", "assay_type": "cell-based", "parameters": "key: susceptible (S); intermediate resistance (I); resistance (R)", "details": "strain from blood sample", "from_the_text": "(§1) The liquid medium usually […]."}, "Enterococcus faecium [3]": {"system": "Enterococcus faecium", "assay": "Susceptibility testing of blood-sample strain by broth microdilution (BMD)", "assay_type": "cell-based", "parameters": "key: susceptible (S); intermediate resistance (I); resistance (R)", "details": "BMD testing method, strain from blood sample", "procedure": "The tests were conducted on various drugs that are currently used in testing organizations. […] Staphylococcus aureus, Staphylococcus epidermidis, Enterococcus faecalis, and Enterococcus faecium were detected in four blood samples. The test results on S. aureus and S. epidermidis in the BMD testing method were in good agreement with those in the testing method using the cell culture test device (DRAST) of the present disclosure.\nAccordingly, these test results are all classified as minor errors of the first step judgement. […] The concentrations shown in FIG. 16 are expressed in μg/mL."}, "Enterococcus faecium [4]": {"system": "Enterococcus faecium", "assay": "Susceptibility testing of blood-sample strain using the cell culture test device (DRAST)", "assay_type": "cell-based", "parameters": "key: susceptible (S); intermediate resistance (I); resistance (R)", "details": "strain from blood sample", "from_the_text": "as §1\nFor example, the biological agent may be a culture of blood collected from a human infected with bacteria, i.e. a culture of blood positive for bacterial infection. In this case, a liquid medium stimulating the division of only the bacterial cells can be used to distinguish the bacterial cells from the blood cells based on their different sizes. The biological agent positive for bacterial infection may be collected and diluted with the gelling agent-containing liquid medium. Thus, there is no need to separate the bacteria from the blood sample, shortening the test time."}, "E. faecalis ATCC 29212": {"system": "E. faecalis ATCC 29212", "assay": "Antibiotic susceptibility testing using the cell culture test device (DRAST), time-lapse colony observation", "details": "reference strain, observed until 6 h"}, "S. aureus ATCC 29213": {"system": "S. aureus ATCC 29213", "assay": "Antibiotic susceptibility testing using the cell culture test device (DRAST), time-lapse colony observation", "details": "reference strain, observed until 6 h"}}}
{"compound": "C[C@H]1[C@H](NC(=O)/C(=N\\OC(C)(C)C(=O)O)c2csc(N)n2)C(=O)N1S(=O)(=O)O", "note": "[aztreonam]", "values": [{"measurement": "MIC of the antibiotic against P. aeruginosa ATCC 27853", "setting": "P. aeruginosa ATCC 27853", "value": 8.0, "unit": "µg/mL"}]}
{"compound": "C[C@@H](O)[C@H]1C(=O)N2C(C(=O)O)=C(S[C@@H]3CN[C@H](C(=O)Nc4cccc(C(=O)O)c4)C3)[C@H](C)[C@H]12", "note": "[ertapenem]", "values": [{"measurement": "susceptibility category (S/I/R) of E. cloacae", "setting": "Enterobacter cloacae [1]", "value": "R"}, {"measurement": "susceptibility category (S/I/R) of E. cloacae", "setting": "Enterobacter cloacae [2]", "value": "I"}]}
{"compound": "CC(=O)NC[C@H]1CN(c2ccc(N3CCOCC3)c(F)c2)C(=O)O1", "note": "[linezolid]", "values": [{"measurement": "susceptibility category (S/I/R) of E. faecium", "setting": "Enterococcus faecium [3]", "value": "R"}, {"measurement": "susceptibility category (S/I/R) of E. faecium", "setting": "Enterococcus faecium [4]", "value": "I"}]}
{"compound": "gentamicin", "values": [{"measurement": "MIC of the antibiotic against E. faecalis ATCC 29212", "setting": "E. faecalis ATCC 29212", "value": 8.0, "unit": "µg/mL"}]}
{"compound": "penicillin", "values": [{"measurement": "MIC of the antibiotic against S. aureus ATCC 29213", "setting": "S. aureus ATCC 29213", "value": 1.0, "unit": "µg/mL"}]}
